Data on 40 molecules can be found in patent publication US20240360151A1 (SANOFI, priority 2023, published 2024).

SMILES strings stand for the structures.

For this assay, the target named is T1, NLRP3 inflammasome (Homo sapiens, UniProt Q96P20).
T1 construct: endogenous in cells; host or cells: THP-1 monocytic cells
T1 sequence (Q96P20 whole entry): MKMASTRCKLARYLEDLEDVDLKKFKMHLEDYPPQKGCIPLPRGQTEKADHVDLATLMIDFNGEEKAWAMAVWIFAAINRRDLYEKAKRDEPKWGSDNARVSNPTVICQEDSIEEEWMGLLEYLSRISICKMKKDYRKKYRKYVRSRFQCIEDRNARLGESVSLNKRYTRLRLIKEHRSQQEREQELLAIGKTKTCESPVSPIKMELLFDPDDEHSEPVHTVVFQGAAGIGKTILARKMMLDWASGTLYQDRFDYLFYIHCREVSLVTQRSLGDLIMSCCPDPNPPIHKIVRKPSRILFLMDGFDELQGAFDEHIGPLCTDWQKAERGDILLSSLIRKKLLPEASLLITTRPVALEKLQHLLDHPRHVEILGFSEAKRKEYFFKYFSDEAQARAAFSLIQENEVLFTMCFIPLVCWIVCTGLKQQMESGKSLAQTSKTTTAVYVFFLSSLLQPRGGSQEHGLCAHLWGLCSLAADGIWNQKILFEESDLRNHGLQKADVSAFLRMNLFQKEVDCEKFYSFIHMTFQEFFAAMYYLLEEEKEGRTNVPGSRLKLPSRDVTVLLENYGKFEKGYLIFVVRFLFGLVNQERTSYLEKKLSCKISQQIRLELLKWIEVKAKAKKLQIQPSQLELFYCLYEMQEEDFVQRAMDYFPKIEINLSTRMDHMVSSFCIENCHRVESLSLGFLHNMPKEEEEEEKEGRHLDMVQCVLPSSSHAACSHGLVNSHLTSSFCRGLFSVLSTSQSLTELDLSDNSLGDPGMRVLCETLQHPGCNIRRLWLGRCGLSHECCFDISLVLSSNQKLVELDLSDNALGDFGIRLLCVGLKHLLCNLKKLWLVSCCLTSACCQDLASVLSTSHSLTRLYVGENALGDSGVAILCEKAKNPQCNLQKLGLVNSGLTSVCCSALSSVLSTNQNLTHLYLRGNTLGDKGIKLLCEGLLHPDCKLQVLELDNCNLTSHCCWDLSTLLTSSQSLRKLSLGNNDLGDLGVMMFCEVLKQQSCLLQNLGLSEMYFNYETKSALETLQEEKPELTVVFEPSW
Put plainly: IL-1β secretion assay (NLRP3 IC50) in LPS-primed, nigericin-activated THP-1 cells, HTRF. The note with it: monocytic THP-1 cells; LPS 10 ng/mL 3 h priming, then compound + nigericin 10 μM 2 h; relative IC50, 10 concentrations, geometric mean. In kind it is cell-based. The method in brief:
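THP-1 cells primed with LPS 10 ng/mL for 3 h at 37° C., then compound (10-point 1:3 dilution, 0.1% DMSO) added with 10 μM nigericin for 2 h. Supernatant IL-1β measured by HTRF; relative IC50 from a 4-parameter logistic fit, reported as geometric mean.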
Take `Cc1cc(C)c(-c2ccc(N3CCC4(CC3)CC(O)C4)nn2)c(O)c1` [Example 3, 7-[6-(2-hydroxy-4,6-dimethyl-phenyl)pyridazin-3-yl]-7-azaspiro[3.5]nonan-2-ol]: the IC50 is 2030 nM. As to `Cc1cc(C)c(-c2ccc(N3CCC4(CC3)CNC4)nn2)c(O)c1` [Example 7, 2-[6-(2,7-diazaspiro[3.5]nonan-7-yl)pyridazin-3-yl]-3,5-dimethyl-phenol; 2,2,2-trifluoroacetic acid], the IC50 was determined as 5470 nM. The result for `NCC1CCN(c2ccc(-c3c(O)cc(Cl)cc3Cl)nn2)CC1` [Example 19, 2-[6-[4-(aminomethyl)-1-piperidyl]pyridazin-3-yl]-3,5-dichloro-phenol] reads 1480 nM; that for `Cc1cc(C(F)(F)F)cc(O)c1-c1ccc(N2CCOC(CN(C)C)C2)nn1` (stereo not shown) [Example 24, 2-[6-[2-[(dimethylamino)methyl]morpholin-4-yl]pyridazin-3-yl]-3-methyl-5-(trifluoromethyl)phenol], 638 nM; that for `Cc1cc(C(F)(F)F)cc(O)c1-c1ccc(N2CCO[C@H](CN(C)C)C2)nn1` [Example 27, 2-[6-[(2R)-2-[(dimethylamino)methyl]morpholin-4-yl]pyridazin-3-yl]-3-methyl-5-(trifluoromethyl)phenol], 1260 nM. With `NC1CC2(CCN(c3ccc(-c4c(O)cc(Cl)cc4Cl)nn3)CC2)C1` [Example 32, 2-[6-(2-amino-7-azaspiro[3.5]nonan-7-yl)pyridazin-3-yl]-3,5-dichloro-phenol] the figure was 3500 nM. Consider `Oc1cc(Cl)cc(Cl)c1-c1ccc(N2CCC3(CC2)CC(O)C3)nn1` [Example 37, 7-[6-(2,4-dichloro-6-hydroxy-phenyl)pyridazin-3-yl]-7-azaspiro[3.5]nonan-2-ol], for which the IC50 turned out to be 893 nM.

In the case of `CN(C)C[C@@H]1CN(c2ccc(-c3c(O)cc(Cl)cc3Cl)nn2)CCO1` [Example 43, 3,5-dichloro-2-[6-[(2R)-2-[(dimethylamino)methyl]morpholin-4-yl]pyridazin-3-yl]phenol], the IC50 turned out to be 603 nM. With `OC[C@@H]1CN(c2ccc(-c3c(O)cccc3F)nn2)CCO1` [Example 44, 3-fluoro-2-[6-[(2S)-2-(hydroxymethyl)morpholin-4-yl]pyridazin-3-yl]phenol], the half-inhibitory concentration (IC50) is 862 nM. Consider `CC(=O)NC1CC2(CCN(c3ccc(-c4c(O)cc(Cl)cc4Cl)nn3)CC2)C1` [Example 47, N-[7-[6-(2,4-dichloro-6-hydroxy-phenyl)pyridazin-3-yl]-7-azaspiro[3.5]nonan-2-yl]acetamide], for which the concentration for half-maximal inhibition (IC50) is 1040 nM. The result for `Oc1cc(Cl)cc(Cl)c1-c1ccc(N2CCC(F)(F)CC2)nn1` [Example 49, 3,5-dichloro-2-[6-(4,4-difluoro-1-piperidyl)pyridazin-3-yl]phenol] reads 672 nM. On to `CN(C)C[C@H]1CCCN(c2ccc(-c3c(O)cc(Cl)cc3Cl)nn2)C1` [Example 50, 3,5-dichloro-2-[6-[(3R)-3-[(dimethylamino)methyl]-1-piperidyl]pyridazin-3-yl]phenol], for which the 50% inhibitory concentration (IC50) is 549 nM. `CN(C)C[C@@H]1CCCN(c2ccc(-c3c(O)cc(Cl)cc3Cl)nn2)C1` [Example 51, 3,5-dichloro-2-[6-[(3S)-3-[(dimethylamino)methyl]-1-piperidyl]pyridazin-3-yl]phenol]: the IC50 amounted to 1050 nM.

`CCN[C@H]1CCCN(c2ccc(-c3c(C)cc(C)cc3O)nn2)C1` [Example 68, 2-[6-[(3S)-3-(ethylamino)-1-piperidyl]pyridazin-3-yl]-3,5-dimethyl-phenol]: the IC50 amounted to 1220 nM.

Regarding `COC[C@H]1CCN(c2ccc(-c3c(C)cc(C)cc3O)nn2)C1` [Example 82, 2-[6-[(3S)-3-(methoxymethyl)pyrrolidin-1-yl]pyridazin-3-yl]-3,5-dimethyl-phenol], the IC50 was 481 nM.

Regarding `Cc1cc(C)c(-c2ccc(N3CC4(CCC(O)CC4)C3)nn2)c(O)c1` [Example 83, 2-[6-(2-hydroxy-4,6-dimethyl-phenyl)pyridazin-3-yl]-2-azaspiro[3.5]nonan-7-ol], the IC50 is 2790 nM. As for `Cc1cc(C)c(-c2ccc(N3CC4(CCC(O)C4)C3)nn2)c(O)c1` (stereo not shown) [Example 84, 2-[6-(2-hydroxy-4,6-dimethyl-phenyl)pyridazin-3-yl]-2-azaspiro[3.4]octan-6-ol], the IC50 came out at 1770 nM. Turning to `COC[C@@H]1CCN(c2ccc(-c3c(C)cc(C)cc3O)nn2)C1` [Example 88, 2-[6-[(3R)-3-(methoxymethyl)pyrrolidin-1-yl]pyridazin-3-yl]-3,5-dimethyl-phenol], the IC50 worked out at 1150 nM.

For the molecule `Cc1cc(C)c(-c2ccc(N3CCO[C@H](CN)C3)nn2)c(O)c1` [Example 89], the concentration for half-maximal inhibition (IC50) was found to be 614 nM. With `Cc1cc(C)c(-c2ccc(N3CC4(CCN4C)C3)nn2)c(O)c1` [Example 91, 3,5-dimethyl-2-[6-(1-methyl-1,6-diazaspiro[3.3]heptan-6-yl)pyridazin-3-yl]phenol], the IC50 is 4930 nM. As for `Cc1ccc(-c2ccc(N3CCO[C@H](CO)C3)nn2)c(O)c1` [Example 92, 2-[6-[(2S)-2-(hydroxymethyl)morpholin-4-yl]pyridazin-3-yl]-5-methyl-phenol], the IC50 is 2200 nM. Regarding `Cc1cc(N2CCO[C@H](CO)C2)nnc1-c1ccc(F)cc1O` [Example 93, 5-fluoro-2-[6-[(2S)-2-(hydroxymethyl)morpholin-4-yl]-4-methyl-pyridazin-3-yl]phenol], the IC50 amounted to 879 nM.

Consider `COc1cc(C)c(-c2ccc(N3CCO[C@H](CO)C3)nn2)c(O)c1` [Example 96, 2-[6-[(2S)-2-(hydroxymethyl)morpholin-4-yl]pyridazin-3-yl]-5-methoxy-3-methyl-phenol], for which the IC50 amounted to 124 nM.

For the molecule `Cc1cc(N2CCO[C@H](CO)C2)nnc1-c1ccc(C(F)(F)F)cc1O` [Example 97, 2-[6-[(2S)-2-(hydroxymethyl)morpholin-4-yl]-4-methyl-pyridazin-3-yl]-5-(trifluoromethyl)phenol], the IC50 is 38 nM. With `Cc1ccc(O)c(-c2ccc(N3CCO[C@H](CO)C3)nn2)c1` [Example 102, 2-[6-[(2S)-2-(hydroxymethyl)morpholin-4-yl]pyridazin-3-yl]-4-methyl-phenol], the IC50 is over 10000 nM. Turning to `CC(=O)NC[C@H]1CN(c2ccc(-c3c(C)cc(C)cc3O)nn2)CCO1` [Example 105, N-[[(2S)-4-[6-(2-hydroxy-4,6-dimethyl-phenyl)pyridazin-3-yl]morpholin-2-yl]methyl]acetamide], the IC50 amounted to 335 nM. In the case of `CC(=O)NC[C@@H]1CN(c2ccc(-c3c(C)cc(C)cc3O)nn2)CCO1` [Example 106, N-[[(2R)-4-[6-(2-hydroxy-4,6-dimethyl-phenyl)pyridazin-3-yl]morpholin-2-yl]methyl]acetamide], the IC50 came out at 174 nM. Take `Cc1cc(C)c(-c2ccc(N3CCCCC(CO)C3)nn2)c(O)c1` (stereo not shown) [Example 107, 2-[6-[3-(hydroxymethyl)azepan-1-yl]pyridazin-3-yl]-3,5-dimethyl-phenol]: the IC50 was found to be 385 nM. With `Cc1cc(C)c(-c2cc(C)c(N3CCO[C@H](CO)C3)nn2)c(O)c1` [Example 109, 2-[6-[(2S)-2-(hydroxymethyl)morpholin-4-yl]-5-methyl-pyridazin-3-yl]-3,5-dimethyl-phenol] the figure was 89 nM; with `Cc1ccc(-c2cc(C)c(N3CCO[C@H](CO)C3)nn2)c(O)c1` [Example 110, 2-[6-[(2S)-2-(hydroxymethyl)morpholin-4-yl]-5-methyl-pyridazin-3-yl]-5-methyl-phenol], 3760 nM.

In the case of `Cc1cc(C)c(-c2nnc(N3CCO[C@H](CO)C3)cc2C)c(O)c1` [Example 112, 2-[6-[(2S)-2-(hydroxymethyl)morpholin-4-yl]-4-methyl-pyridazin-3-yl]-3,5-dimethyl-phenol], the IC50 turned out to be 88 nM. As to `Cc1cc(C)c(-c2ccc(N3C[C@@H](O)CO3)nn2)c(O)c1` [Example 113, (4R)-2-[6-(2-hydroxy-4,6-dimethyl-phenyl)pyridazin-3-yl]isoxazolidin-4-ol], the IC50 was found to be 857 nM.

Consider `Cc1cc(C)c(-c2ccc(N3CC4(CO)CCCC3C4)nn2)c(O)c1` (stereo not shown) [Example 114, 2-[6-[1-(hydroxymethyl)-6-azabicyclo[3.2.1]octan-6-yl]pyridazin-3-yl]-3,5-dimethyl-phenol], for which the IC50 stood at 958 nM. The result for `Cc1cc(C)c(-c2ccc(N3CC[C@H]3CO)nn2)c(O)c1` [Example 115, 2-[6-[(2S)-2-(hydroxymethyl)azetidin-1-yl]pyridazin-3-yl]-3,5-dimethyl-phenol] reads 1540 nM. Regarding `OC[C@@H]1CCN1c1ccc(-c2c(O)cc(Cl)cc2Cl)nn1` [Example 117, 3,5-dichloro-2-[6-[(2S)-2-(hydroxymethyl)azetidin-1-yl]pyridazin-3-yl]phenol], the IC50 was 869 nM. Regarding `Cc1cc(C)c(-c2ccc(N3CC[C@@H]3CO)nn2)c(O)c1` [Example 118, 2-[6-[(2R)-2-(hydroxymethyl)azetidin-1-yl]pyridazin-3-yl]-3,5-dimethyl-phenol], the half-inhibitory concentration (IC50) came out at 758 nM. Consider `Cc1cc(C)c(-c2ccc(N3C4CCC3COC4)nn2)c(O)c1` [Example 120, 3,5-dimethyl-2-[6-(3-oxa-8-azabicyclo[3.2.1]octan-8-yl)pyridazin-3-yl]phenol], for which the IC50 came out at 2520 nM. Regarding `Cc1cc(C)c(-c2ccc(N3CCOC[C@H]3CN)nn2)c(O)c1` [Example 123, 2-[6-[(3R)-3-(aminomethyl)morpholin-4-yl]pyridazin-3-yl]-3,5-dimethyl-phenol; 2,2,2-trifluoroacetic acid], the half-inhibitory concentration (IC50) turned out to be 2020 nM. For `Cc1cc(C)c(-c2ccc(N3CCOC[C@@H]3CN)nn2)c(O)c1` [Example 124, 2-[6-[(3S)-3-(aminomethyl)morpholin-4-yl]pyridazin-3-yl]-3,5-dimethyl-phenol], the IC50 stood at 1050 nM. The result for `Cc1cc(C)c(-c2ccc(N3C[C@H]4NCCO[C@@H]4C3)nn2)c(O)c1` [Example 125, 2-[6-[(4aR,7aR)-3,4,4a,5,7,7a-hexahydro-2H-pyrrolo[3,4-b][1,4]oxazin-6-yl]pyridazin-3-yl]-3,5-dimethylphenol] reads 1320 nM.

Broadly, the IC50 is the concentration at which inhibition is half-maximal.
